For 24 compounds, GI50 results are on record in patent US12558428B2, “Heterobifunctional compounds and their use in treating disease” (Halda Therapeutics OpCo, Inc., priority 2024, dated 2026).

Where two headings read alike, the source gives them in different places.

Assay type in all cases: cell-based
The subject of experiment [1] is T-Rex 293 cells having increased expression of estrogen receptor alpha protein. Kind of experiment: Cellular growth inhibition assay, T-Rex 293 cells, (+) doxycycline. The following applies: T-REx-293, 72 h, T-Rex 293 cells with doxycycline (increased ERα expression), 72 hours, CellTiter-Glo, read-out: (+) Dox GI50. A digest of the protocol: (§1)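 Growth of a doxycycline-inducible ERα T-Rex 293 clone, induced or not with 3 ng/mL doxycycline, was followed for 72 h with test compound in hormone-depleted medium. CellTiter-Glo luminescence gave GI50.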
In general terms: Cellular ATP, detected with luciferase, serves as a proxy for viable cell number.

Experiment [2] has as its system T-Rex 293 cells lacking increased expression of estrogen receptor alpha protein. Kind of experiment: Cellular growth inhibition assay, T-Rex 293 cells, (−) doxycycline. The following applies: T-REx-293, 72 h, T-Rex 293 cells without doxycycline (lacking increased ERα expression), 72 hours, CellTiter-Glo, read-out: (−) Dox GI50. The procedure, abridged: as §1
For experiment [3], the system named is MCF7 cells (ATCC #HTB-22). Kind of experiment: Cellular growth inhibition assay, MCF7 cells purchased from ATCC. To be noted: Homo sapiens, MCF7, 144 h, Table 8-A; MCF7 cells purchased from ATCC; six days; CellTiter-Glo; read-out: GI50. The procedure, abridged: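 GI50 values come from a four-parameter fit of CellTiter-Glo 2.0 luminescence after six days of compound exposure at 37° C. Seeding density depended on the source: 225 cells/well for ECACC MCF7, 1,500 for ATCC. Medium was RPMI 1640 with 10% FBS and 0.2 U/ml insulin.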

As a reminder, the GI50 is the concentration that inhibits growth by half. Turning to `Cc1sc2c(c1C)C(c1ccc(N3CCC(O)(CN4CCN(c5cc(F)c([C@H]6c7ccc(O)cc7CC[C@H]6c6ccccc6)cc5F)CC4)CC3)cc1F)=N[C@@H](C)c1nnc(C)n1-2` [III-303], the GI50 in experiment [1] (Table 7-A), in experiment [2] (Table 7-A) and in experiment [3] was 50 to 500 nM each time.

As for `Cc1sc2c(c1C)C(c1ccc(N3CCC(O)(CN4CCN(c5cc(F)c([C@@H]6c7ccc(O)cc7CC[C@@H]6c6ccccc6)cc5F)CC4)CC3)cc1F)=N[C@@H](C)c1nnc(C)n1-2` [III-304], the GI50 in experiment [1] (Table 7-A) is under 50 nM; in experiment [2] (Table 7-A), 500 to 2500 nM; in experiment [3], under 50 nM.

As for `Cc1sc2c(c1C)C(c1ccc(N3CCC(O)(CN4CCN(c5ccc([C@@H]6c7ccc(O)cc7CC[C@@H]6c6ccc(F)cc6)c(Cl)c5)CC4)CC3)cc1)=N[C@@H](C)c1nnc(C)n1-2` [III-305], the results for the GI50 in experiment [1] (Table 7-A), in experiment [2] (Table 7-A) and in experiment [3] were under 50 nM, 500 to 2500 nM and under 50 nM, respectively.

Regarding `Cc1sc2c(c1C)C(c1ccc(N3CCC(O)(CN4CCN(c5ccc([C@H]6c7ccc(O)cc7CC[C@H]6c6ccc(F)cc6)c(Cl)c5)CC4)CC3)cc1)=N[C@@H](C)c1nnc(C)n1-2` [III-306], the GI50 in experiment [1] (Table 7-A) lay in the range of 50 to 500 nM; in experiment [2] (Table 7-A), 500 to 2500 nM; in experiment [3] it was 50 to 500 nM.

In the case of `COc1cc(N2CCN(CC3(O)CCN(c4ccc(C5=N[C@@H](C)c6nnc(C)n6-c6sc(C)c(C)c65)cc4)CC3)CC2)ccc1[C@H]1c2ccc(O)cc2CC[C@H]1c1cccc(F)c1` [III-309], the GI50 in experiment [1] (Table 7-A), in experiment [2] (Table 7-A) and in experiment [3] was 50 to 500 nM in each case.

Consider `COc1cc(N2CCN(CC3(O)CCN(c4ccc(C5=N[C@@H](C)c6nnc(C)n6-c6sc(C)c(C)c65)cc4)CC3)CC2)ccc1[C@@H]1c2ccc(O)cc2CC[C@@H]1c1cccc(F)c1` [III-310], for which the GI50 was under 50 nM in experiment [1] (Table 7-A), 500 to 2500 nM in experiment [2] (Table 7-A) and under 50 nM in experiment [3].

In the case of `Cc1sc2c(c1C)C(c1ccc(N3CCC(CN4CCN(c5cc(F)c([C@@H]6c7ccc(O)cc7CC[C@@H]6c6ccccc6)cc5F)CC4)CC3)cc1)=N[C@@H](C)c1nnc(C)n1-2` [III-317], the GI50 in experiment [1] (Table 7-A) is under 50 nM; in experiment [2] (Table 7-A) it was 50 to 500 nM; in experiment [3], 50 to 500 nM.

For the compound `Cc1sc2c(c1C)C(c1ccc(N3CCC(CN4CCN(c5cc(F)c([C@H]6c7ccc(O)cc7CC[C@H]6c6ccccc6)cc5F)CC4)CC3)cc1)=N[C@@H](C)c1nnc(C)n1-2` [III-318], the GI50 in experiment [1] (Table 7-A), in experiment [2] (Table 7-A) and in experiment [3] was 50 to 500 nM each time.

On to `COc1cc(N2CCN(CC3(O)CCN(c4cc(F)c(C5=N[C@@H](C)c6nnc(C)n6-c6sc(C)c(C)c65)cc4F)CC3)CC2)ccc1[C@@H]1c2ccc(O)cc2CC[C@@H]1c1ccccc1` [III-339, 1-(2,5-difluoro-4-((S)-2,3,6,9-tetramethyl-6H-thieno[3,2-f][1,2,4]triazolo[4,3-a][1,4]diazepin-4-yl)phenyl)-4-((4-(4-((1S,2S)-6-hydroxy-2-phenyl-1,2,3,4-tetrahydronaphthalen-1-yl)-3-methoxyphenyl)piperazin-1-yl)methyl)piperidin-4-ol], for which the GI50 is under 50 nM in experiment [1] (Table 7-A), over 2500 nM in experiment [2] (Table 7-A) and under 50 nM in experiment [3].

Consider `COc1cc(N2CCN(CC3(O)CCN(c4cc(F)c(C5=N[C@@H](C)c6nnc(C)n6-c6sc(C)c(C)c65)cc4F)CC3)CC2)ccc1[C@H]1c2ccc(O)cc2CC[C@H]1c1ccccc1` [III-340, 1-(2,5-difluoro-4-((S)-2,3,6,9-tetramethyl-6H-thieno[3,2-f][1,2,4]triazolo[4,3-a][1,4]diazepin-4-yl)phenyl)-4-((4-(4-((1R,2R)-6-hydroxy-2-phenyl-1,2,3,4-tetrahydronaphthalen-1-yl)-3-methoxyphenyl)piperazin-1-yl)methyl)piperidin-4-ol], for which the concentration for 50% growth inhibition (GI50) in experiment [1] (Table 7-A), in experiment [2] (Table 7-A) and in experiment [3] was 50 to 500 nM throughout.

Consider `COc1cc(N2CCN(CC3(O)CCN(c4cc(F)c(C5=N[C@@H](C)c6nnc(C)n6-c6sc(C)c(C)c65)cc4F)CC3)CC2)c(F)cc1[C@@H]1c2ccc(O)cc2CC[C@@H]1c1ccccc1` [III-341, 1-(2,5-difluoro-4-((6S)-2,3,6,9-tetramethyl-6H-thieno[3,2-f][1,2,4]triazolo[4,3-a][1,4]diazepin-4-yl)phenyl)-4-((4-(2-fluoro-4-((1S,2S)-6-hydroxy-2-phenyl-1,2,3,4-tetrahydronaphthalen-1-yl)-5-methoxyphenyl)piperazin-1-yl)methyl)piperidin-4-ol], for which the figures for the GI50 in experiment [1] (Table 7-A), in experiment [2] (Table 7-A) and in experiment [3] were under 50 nM, over 2500 nM and under 50 nM, respectively.

For `COc1cc(N2CCN(CC3(O)CCN(c4cc(F)c(C5=N[C@@H](C)c6nnc(C)n6-c6sc(C)c(C)c65)cc4F)CC3)CC2)c(F)cc1[C@H]1c2ccc(O)cc2CC[C@H]1c1ccccc1` [III-342, 1-(2,5-difluoro-4-((6S)-2,3,6,9-tetramethyl-6H-thieno[3,2-f][1,2,4]triazolo[4,3-a][1,4]diazepin-4-yl)phenyl)-4-((4-(2-fluoro-4-((1R,2R)-6-hydroxy-2-phenyl-1,2,3,4-tetrahydronaphthalen-1-yl)-5-methoxyphenyl)piperazin-1-yl)methyl)piperidin-4-ol], the GI50 in experiment [1] (Table 7-A), in experiment [2] (Table 7-A) and in experiment [3] was 50 to 500 nM throughout.

Regarding `Cc1sc2c(c1C)C(c1ccc(N3C[C@@H]4C(NCCOc5ccc([C@H]6c7ccc(O)cc7CC[C@H]6c6ccccc6)cc5)[C@H]4C3)cc1)=NC(Cc1ncco1)c1nnc(C)n1-2` (stereo partly drawn) [III-347], the GI50 in experiment [1] (Table 7-B), in experiment [2] (Table 7-B) and in experiment [3] was under 50 nM throughout.

Turning to `Cc1sc2c(c1C)C(c1ccc(N3CCN(CC4CCN(c5ccc(C6=C(c7ccc(Cl)cc7Cl)CCCc7cc(C(=O)O)ccc76)cc5)CC4)CC3)cc1)=N[C@@H](C)c1nnc(C)n1-2` [IV-1], the results for the GI50 in experiment [1] (Table 7-A), in experiment [2] (Table 7-A) and in experiment [3] were under 50 nM, over 2500 nM and 50 to 500 nM, respectively.

`Cc1sc2c(c1C)C(c1ccc(N3CCN(CCN4CC[C@H](Oc5ccc(C6=C(c7ccc(Cl)cc7Cl)CCCc7cc(C(=O)O)ccc76)cc5)C4)CC3)cc1)=N[C@@H](C)c1nnc(C)n1-2` [IV-2]: the 50% growth inhibitory concentration (GI50) was 50 to 500 nM in experiment [1] (Table 7-A), 500 to 2500 nM in experiment [2] (Table 7-A) and 50 to 500 nM in experiment [3].

For the compound `Cc1sc2c(c1C)C(c1ccc(N3CCN(CCN4CC(Oc5ccc(C6=C(c7ccc(Cl)cc7Cl)CCCc7cc(C(=O)O)ccc76)cc5)C4)CC3)cc1)=N[C@@H](C)c1nnc(C)n1-2` [IV-3], the GI50 in experiment [1] (Table 7-A) is under 50 nM; in experiment [2] (Table 7-A) it was 500 to 2500 nM; in experiment [3], 50 to 500 nM.

Take `Cc1sc2c(c1C)C(c1ccc(N3CCN(CC4CCN(c5ccc(C6=C(c7ccc(Cl)cc7Cl)CCCc7cc(C(=O)O)ccc76)cc5)CC4)CC3)cc1)=N[C@@H](Cc1ncco1)c1nnc(C)n1-2` [IV-4]: the GI50 in experiment [1] (Table 7-A) is 50 to 500 nM; in experiment [2] (Table 7-A) it was 500 to 2500 nM; in experiment [3], under 50 nM.

Consider `Cc1sc2c(c1C)C(c1ccc(N3CCC(O)(CN4CCC(c5ccc(C6=C(c7ccc(Cl)cc7Cl)CCCc7cc(C(=O)O)ccc76)cc5)CC4)CC3)cc1)=N[C@@H](C)c1nnc(C)n1-2` [IV-5], for which the GI50 was under 50 nM in experiment [1] (Table 7-A), over 2500 nM in experiment [2] (Table 7-A) and 50 to 500 nM in experiment [3].

As to `Cc1sc2c(c1C)C(c1ccc(N3CCC(CN4CCC(c5ccc(C6=C(c7ccc(Cl)cc7Cl)CCCc7cc(C(=O)O)ccc76)cc5)CC4)CC3)cc1)=N[C@@H](C)c1nnc(C)n1-2` [IV-6], the GI50 in experiment [1] (Table 7-A) lay in the range of 50 to 500 nM; in experiment [2] (Table 7-A), 500 to 2500 nM; in experiment [3], 50 to 500 nM.

For `Cc1sc2c(c1C)C(c1ccc(N3CCC(C(=O)N4CCN(c5ccc(C6=C(c7ccc(Cl)cc7Cl)CCCc7cc(C(=O)O)ccc76)cc5)CC4)CC3)cc1)=N[C@@H](C)c1nnc(C)n1-2` [IV-7], the GI50 lay within 50 to 500 nM in experiment [1] (Table 7-A), 500 to 2500 nM in experiment [2] (Table 7-A) and 50 to 500 nM in experiment [3].

`Cc1sc2c(c1C)C(c1ccc(N3CC(CN4CCN(CC5CN(c6ccc(C7=C(c8ccc(Cl)cc8Cl)CCCc8cc(C(=O)O)ccc87)cc6)C5)CC4)C3)cc1)=N[C@@H](C)c1nnc(C)n1-2` [IV-8]: the results for the 50% growth inhibitory concentration (GI50) in experiment [1] (Table 7-A), in experiment [2] (Table 7-A) and in experiment [3] were under 50 nM, 500 to 2500 nM and under 50 nM, respectively.

In the case of `Cc1sc2c(c1C)C(c1ccc(N3CCC(O)(CN4CCN(c5ccc(C6=C(c7ccc(Cl)cc7Cl)CCCc7cc(C(=O)O)ccc76)cc5)CC4)CC3)cc1)=N[C@@H](C)c1nnc(C)n1-2` [IV-9], the GI50 in experiment [1] (Table 7-A) is under 50 nM; in experiment [2] (Table 7-A) it was 500 to 2500 nM; in experiment [3], under 50 nM.

Regarding `Cc1sc2c(c1C)C(c1ccc(N3CC(CN4CCN(c5ccc(C6=C(c7ccc(Cl)cc7Cl)CCCc7cc(C(=O)O)ccc76)cc5)CC4)C3)cc1)=N[C@@H](C)c1nnc(C)n1-2` [IV-10], the GI50 was 50 to 500 nM in experiment [1] (Table 7-A), 500 to 2500 nM in experiment [2] (Table 7-A) and 50 to 500 nM in experiment [3].

In the case of `Cc1sc2c(c1C)C(c1ccc(N3CCC(CN4CCN(c5ccc(C6=C(c7ccc(Cl)cc7Cl)CCCc7cc(C(=O)O)ccc76)cc5)CC4)CC3)cc1)=N[C@@H](C)c1nnc(C)n1-2` [IV-11], the GI50 was under 50 nM in experiment [1] (Table 7-A), 500 to 2500 nM in experiment [2] (Table 7-A) and 50 to 500 nM in experiment [3].
